{
  "source": "paper PMC4326827",
  "about": "“Biophysical Studies on Interactions and Assembly of Full-size E3 Ubiquitin Ligase” (The Journal of Biological Chemistry, 2014)",
  "key": {"[1]": {"biological_target": "GHR_pY595-SOCS2-EloBC complex", "experiment": "ITC of Cul5NTD into GHR_pY595-SOCS2-EloBC (cooperativity)", "type": "binding, human", "conditions": "titration of Cul5NTD into GHR_pY595-SOCS2-EloBC complex", "description": "Experiments were conducted using an iTC200 microcalorimeter instrument (GE Healthcare). […] Peptides and Tyr(P) were dissolved in the same buffer. Obtained data were analyzed and fitted using the Microcal Origin version 7.0 software package. Binding enthalpy, dissociation constants, and stoichiometry were determined by fitting the data using a one-set-of-site binding model."}, "[2]": {"biological_target": "T1, SOCS2-EloBC (Homo sapiens, UniProt O14508+Q15369+Q15370)", "T1 construct": "Recombinant human SOCS2 (amino acids 32–198); His6 (cleaved yes); made in house; host or cells: Escherichia coli BL21(DE3)", "T1 sequence (O14508 32-198)": "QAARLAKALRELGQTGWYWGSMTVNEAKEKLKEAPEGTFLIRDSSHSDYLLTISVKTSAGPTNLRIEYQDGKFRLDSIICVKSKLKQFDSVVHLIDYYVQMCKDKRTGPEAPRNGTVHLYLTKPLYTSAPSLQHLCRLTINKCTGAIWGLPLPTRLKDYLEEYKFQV", "T1 sequence (Q15369 17-112 partner limits assumed)": "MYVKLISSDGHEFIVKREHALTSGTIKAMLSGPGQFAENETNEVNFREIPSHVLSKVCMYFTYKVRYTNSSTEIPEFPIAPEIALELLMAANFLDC", "T1 sequence (Q15370 whole entry partner, the tested form may be a part)": "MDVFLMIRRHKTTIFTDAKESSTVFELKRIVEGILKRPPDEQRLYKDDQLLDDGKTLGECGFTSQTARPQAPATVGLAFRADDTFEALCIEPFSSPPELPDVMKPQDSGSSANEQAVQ", "experiment": "ITC of GHR peptides and phosphotyrosine into SOCS2-EloBC", "type": "binding", "conditions": "298 K"}, "[3]": {"biological_target": "SOCS2 (UniProt O14508)", "experiment": "peptide-bead pull-down from lysate, TMT MS", "conditions": "reference: GHR_Y595 peptide beads; sites Y595"}, "[4]": {"test_system": "CRL5^SOCS2 (SOCS2, EloB, EloC, Cul5, and Rbx2)", "experiment": "Peptide bead pull-down from K562 cell lysate, CRL5^SOCS2 components", "type": "binding", "conditions": "immobilized peptide beads, human K562 total cell lysate, 2 h at 4 °C, tandem mass tags MS", "text": "(§1) After washing, bound proteins were eluted with SDS-sample buffer and prepared for tandem mass tags labeling and MS analysis as described previously ([17])."}, "[5]": {"test_system": "CRL1^FBXO31 E3 ligase (FBXO31, Rbx1, Cul1, and Skp1)", "experiment": "Peptide bead pull-down from K562 cell lysate, CRL1^FBXO31 subunits", "type": "binding", "conditions": "peptide beads, human K562 cell lysate, 2 h at 4 °C, MS", "text": "as §1"}},
  "note": "*: point of attachment. Biotin = O=C1N[C@H]2[C@H](CS[C@H]2CCCCC(=O)*)N1; Ahx = NCCCCCC(=O)O",
  "data": [
    {"compound": "Cul5NTD: Recombinant human Cul5NTD (N-terminal domain, residues 1–386) expressed in E. coli", "values": [
      {"measurement": "change in Kd or ΔH (cooperativity)", "setting": "[1]", "value": "No change in the Kd or ΔH values was observed"}
    ]},
    {"compound": "N[C@@H](Cc1ccc(OP(=O)(O)O)cc1)C(=O)O", "note": "[Tyr(P), phosphotyrosine]", "values": [
      {"measurement": "Kd", "setting": "[2]; 350 μM peptide or 2 mM Tyr(P) into 30 μM SOCS2-EloBC, 50 mM HEPES, pH 7.5, 250 mM NaCl, 0.5 mM TCEP, one-set-of-site model", "value": 191, "unit": "µM"},
      {"measurement": "binding affinity weaker than for phosphorylated peptide GHR_pY595", "setting": "[2]; ratio of Kd", "value": "~100 -fold"}
    ]},
    {"compound": "growth hormone receptor (GHR) (from UniProt P10912) GHR_pY595 peptide beads", "values": [
      {"measurement": "binding against the reference", "setting": "[3]", "value": "gained"}
    ]},
    {"compound": "Biotin-aminohexanoic acid-PVPDpYTSIHIV-amide [GHR_pY595-beads]", "values": [
      {"measurement": "capture of CRL5^SOCS2 components on peptide beads", "setting": "[4]", "value": "endogenous components of CRL5^SOCS2 E3 ligase were only captured by GHR_pY595-beads"}
    ]},
    {"compound": "GHR_Y595-containing beads: biotinylated non-phosphorylated GHR_Y595 peptide immobilized on high capacity Neutravidin beads ({Biotin-Ahx}-PVPDYTSIHIV-NH2; SMILES CC[C@H](C)[C@H](NC(=O)[C@H](CO)NC(=O)[C@@H](NC(=O)[C@H](Cc1ccc(O)cc1)NC(=O)[C@H](CC(=O)O)NC(=O)[C@@H]1CCCN1C(=O)[C@@H](NC(=O)[C@@H]1CCCN1C(=O)CCCCCNC(=O)CCCC[C@@H]1SC[C@@H]2NC(=O)N[C@@H]21)C(C)C)[C@@H](C)O)C(=O)N[C@@H](Cc1c[nH]cn1)C(=O)N[C@H](C(=O)N[C@H](C(N)=O)C(C)C)[C@@H](C)CC)", "values": [
      {"measurement": "capture of CRL1^FBXO31 subunits", "setting": "[5]", "value": "significant recruitment of the four CRL1^FBXO31 subunits was also observed"},
      {"measurement": "capture of CRL5^SOCS2 components on peptide beads", "setting": "[4]", "value": "no significant capturing from cell lysates was observed"}
    ]}
  ]
}
